A short description of experiment [1]: Body weight of DIO mice, 4-hydroxyisoleucine and Rimonabant alone and in combination (Example 7). Format: in vivo, C57BU6 mice. The settings on record: oral. Here is the method:
C57BU6 mice were received at 7-8 weeks of age and fed a high fat diet (60% of calories from fat) for 8 weeks. Seven days prior to treatment, animals were randomized based on their body weight and fasted glycemia values into control and treated groups (n=8). The animals were treated by oral gavage twice daily with 4-OH (50 mg/kg of body weight; group 2), once daily in the afternoon with Rimonabant (0.1 mg/kg; group 3), and a combination of the two treatments (4-OH 50 mg/kg twice daily +Rimonabant 0.1 mg/kg once daily; group 4). The control group (group 1) received vehicle alone twice daily. After 3 weeks of treatment (day 22), the doses were increased as follows: 4-OH 100 mg/kg twice daily (group 2), Rimonabant 1 mg/kg once daily (group 3), and the combination (4-OH 100 mg/kg twice daily+Rimonabant 1 mg/kg once daily; group 4). The animals were treated for 1 week with these higher doses. Body weight of the mice was recorded every day for all groups from Day 6 to Day 28.

A short description of experiment [2]: Body weight gain and epididymal fat pad in the DIO mouse model, Compound 13e (Example 8). The format is in vivo, C57BU6 mice. The settings on record: 25 or 50 mg/kg twice daily oral gavage, 21 days. Here is the method: The objective of this study was to determine the effect of one analog according to the invention, namely Compound 13e, on body weight gain in the Diet-Induced Obesity (DIO) mouse model.
C57BU6 mice were received at 7-8 weeks of age and fed a high fat diet (60% of calories from fat) for 8 weeks. Fasted glycemia and body weight values were used to randomize the mice into control and treatment groups (n=8). The average basal glycemia was between 213 and 215 mg/dL for all groups. The animals were treated twice daily by oral gavage with Compound 13e (25 or 50 mg per kg of body weight), and the control group received vehicle (200 mM bicarbonate buffer/0.1% Tween-20™, pH =9) alone. The animals were treated for 21 days. Body weight of the mice was measured on a frequent basis during the treatment. At the end of the study, the epididymal fat pads were isolated and weighed. Data are expressed as mean±SEM of body weight and mean±SEM of fat pad weight.

A short description of experiment [3]: Body weight gain in C57BU6 mice shifted to a high fat diet, analogs and isomers, 3 days (Example 9). The format is in vivo. The conditions noted are these: 100 mg/kg twice daily oral gavage; for body weight gain induced by the high fat diet: C57BU6 mice on high fat diet. Here is the method: C57BU6 mice were received at 6-7 weeks of age and fed a standard commercial chow for 1 week (acclimation period). The animals were randomized based on their body weight values, into control and treatment groups (n=6). Then, animals were shifted to a high fat diet (60% of calories from fat) and treated twice daily by oral gavage with 4-hydroxyisoleucine (4-OH, compound 14a) or different analogs and isomers of 4-OH at the dose of 100 mg per kg of body weight for 3 days. The control group (Control HFD) received vehicle (water) alone and a group was kept under standard chow (Control Lean). Body weight of the mice was recorded daily. Two different experiments were run and the effect on body weight gain of selected analogs and isomers according to the invention is presented in FIG. 22A (Experiment 1) and FIG. 22B (Experiment 2).

Experiment [4] in a line: Body weight of DIO mice, 4-hydroxyisoleucine and metformin alone and in combination (Example 6). Format: in vivo, C57BU6 mice. The settings on record: DIO mice, 21 days. Here is the method: C57BU6 mice were received at 7-8 weeks of age and fed a high fat diet (60% of calories from fat) for 8 weeks. Fasted glycemia was checked and animals with readings between 200 and 220 mg/dL were included in the study. The animals were randomized based on their body weights and glycemia values into control and treatment groups (n=8). […] The control group received vehicle (water) alone. The animals were treated for 21 days. Body weight of the mice was measured on the first day of treatment and on days 3, 7, 10, 14, 17, and 21. All data are expressed as mean±SEM.

The conditions of experiment [5]: cited from earlier work.
Experiment [6] is described as follows: Weight gain and epididymal fat of DIO-C57Bl/6 mice, 4-hydroxyisoleucine and Exendin-4 alone or in combination (Example 5). Format: in vivo, C57BI/6 mice. The settings on record: s.c., 21 days. Here is the method:
(§1) Glycemic response was monitored by an Oral Glucose Tolerance Test (OGTT) performed on days 0, 7, 14, and 21 of treatment.
(§2) A total of 56 animals were used in the study. The animals were distributed into 7 groups (5 treated, 1 normal diet control, and 1 high fat diet control group). Each group was composed of 8 animals. […] For the three weeks of treatment, the test agents were dissolved in sterile saline for injection (USP). 4-Hydroxyisoleucine was kept at 4° C. (administration to groups 3, 4, and 7) while a frozen aliquot of Exendin-4 was thawed each dosing day for administration to groups 5, 6, and 7. Control animals received sterile saline, twice daily (groups 1 and 2). […] Animals from groups 5 and 6 received sterile saline as the AM treatment, while the PM treatment consisted of 0.05 and 0.01 mg/kg of Exendin-4, respectively. For Group 7, the AM treatment consisted of 50 mg/kg 4-OH only, while the PM treatment consisted of 0.01 mg/kg of Exendin-4+50 mg/kg of 4-OH. All groups were treated by subcutaneous injection.

The nature of experiment [7]: Oral Glucose Tolerance Test (OGTT) in DIO mice, 4-hydroxyisoleucine and Exendin-4 alone or in combination (Example 5). The format is in vivo, C57BI/6 mice. The settings on record: single agent, 4-OH 50 mg/kg or Exendin-4 0.01 mg/kg, after 7, 14 and 21 days of treatment. How it is done:
as §1, §2
On days 0, 7, 14, and 21, animals fasted for approximately 5 hours were challenged with an Oral Glucose Tolerance Test (OGTT) at 5 hours post-AM test agent administration. Whole blood glucose levels were monitored using a hand-held glucometer prior to OGTT and for up to 2 hours post-glucose challenge.

Counter-ions that a name gives are not always drawn.

Consider `Cc1c(C(=O)NN2CCCCC2)nn(-c2ccc(Cl)cc2Cl)c1-c1ccc(Cl)cc1` [Rimonabant, 5-(4-Chlorophenyl)-1-(2,4-dichlorophenyl)-4-methyl-N-(piperidin-1-yl)-1H-pyrazole-3-carboxamide, reference compound], for which the “body weight gain after 21 days (low dosage treatment)” value in experiment [1] (4-OH 50 mg/kg twice daily, Rimonabant 0.1 mg/kg once daily, alone or in combination) is on record as “slight reduction of body weight gain”. The “body weight after dose increase (day 22 to 28)” value in experiment [1] (4-OH 100 mg/kg twice daily, Rimonabant 1 mg/kg once daily, alone or in combination (combination compared to each compound separately)) was “immediately reduced the body weight”.

For `N[C@H](C(=O)O)[C@@H]1CCCC[C@H]1O` [Compound 13e, (S)-2-amino-2-((1S,2R)-2-hydroxycyclohexyl)acetic acid], in experiment [2], the “body weight gain compared to vehicle treated mice” value was “reduction in body weight gain”. Moreover, in experiment [2] (DIO mice), the “dose dependence of the effect on body weight gain” value is recorded as “dose-dependent”. Besides, in experiment [2] (DIO mice, grams per 10 grams of body weight), the “epididymal fat pad weight” value was “reduction of epididymal fat pad weight”.

Take `O=C(O)[C@@H]1C[C@H](O)CN1` [compound 75, cis-4-hydroxyproline]: the “body weight gain induced by the high fat diet” value (from here on “body weight gain induced”) in experiment [3] is reported as “reduced body weight gain induced by the high fat diet”.

As for `CC1(O)CC(C(=O)O)NCC1O` (centres unmarked) [compound 65a, 4-methyl-4,5-dihydroxypipecolic acid], in experiment [3], the “efficacy on body weight gain relative to compound #14a” value was “greater efficacy than the SRS isomer of 4-OH” and the “body weight gain induced” value is given as “reduced body weight gain induced by the high fat diet”.

For `C[C@H]([C@@H](C)O)[C@@H](N)C(=O)O` [compound 14aa, (2R,3S,4R)-4-Hydroxyisoleucine], the “body weight gain induced” value in experiment [3] is “reduced body weight gain induced by the high fat diet”.

With `COC(=O)[C@@H]1C[C@H](O)CN1` [compound 76, cis-4-hydroxyproline methyl ester HCl salt], the “body weight gain induced” value in experiment [3] is “reduced body weight gain induced by the high fat diet”.

For `CN(C)C(=N)N=C(N)N` [metformin], in experiment [4] (100 mg/kg twice daily oral, only 4-OH significant (p<0.01 4-OH, p=0.27 metformin)), the “body weight as compared to vehicle-treated mice” value is listed as “reduction of their body weight”. In experiment [4] (4-OH 50 mg/kg or metformin 25 mg/kg twice daily oral), the “body weight compared to control DIO mice, given alone” value is on record as “no significant effect on body weight”. Besides, in experiment [5] (by increasing insulin sensitivity (Stumvoll et al. 1995)), the blood glucose levels result is on record as “lowers blood glucose levels”. For the same compound, in experiment [5] (most studies conducted in patients with type 2 diabetes (Hundal et al. 2003)), the body weight entry is reported as “reduce body weight”. Further, in experiment [5] (obese individuals without diabetes (Glueck et al. 2001)), the weight result is “induced weight loss”.

As to `COC(=O)[C@H]1C[C@@H](O)CN1` [compound 202], the “body weight gain induced” value in experiment [3] is recorded as “reduced body weight gain induced by the high fat diet”.

With `CC(C)(C)C(O)CC(N)C(=O)O` (centres unmarked) [compound 62, 2-amino-4-hydroxy-5,5-dimethyl-hexanoic acid], in experiment [3], the “efficacy on body weight gain relative to compound #14a” value was “greater efficacy than the SRS isomer of 4-OH” and the “body weight gain induced” value is on record as “reduced body weight gain induced by the high fat diet”.

With “Exendin-4: glucagon-like peptide 1 (GLP-1) receptor agonist”, the body weight gain entry in experiment [6] (4-OH 50 mg/kg twice daily, Exendin-4 0.01 mg/kg (PM), alone or in combination) is “decrease in body weight gain”. Also, the “weight of epididymal fat” value is listed as “not effective” in experiment [6] (4-OH 100 mg/kg, Exendin-4 0.01 mg/kg, combination 4-OH 50 mg/kg + Exendin-4 0.01 mg/kg) and “effective” in experiment [6] (Exendin-4 0.05 mg/kg). Also, the “glycemic levels following OGTT challenge” value in experiment [7] was “effective”.

`CC(=O)N[C@@H]1C(=O)O[C@@H](C)[C@@H]1C` [compound 104]: the “body weight gain induced” value in experiment [3] is “reduced body weight gain induced by the high fat diet”.

The record behind these values is patent US20060223884A1, “Compounds and compositions for use in the prevention and treatment of obesity and related syndromes” (priority 2005, published 2006).
